From patent US10376561B1, “Fasciola hepatica fatty acid binding protein a novel anti-inflammatory molecule” (priority 2015, dated 2019)

Assays:
TLR4 = assay: NF-κB activation in TLR4-transfected HEK cells (SEAP, A655); assay type: cell-based, human; settings: PMB 100 μM; LPS 5 μg/ml
Description: To investigate the mechanism of interaction between Fh12 and TLR4 we used Human Embryonic Kidney 293 cells (HEK293, InvivoGen). These cells (HEK293-TLR4) are co-transfected with genes encoding cluster differentiation antigen-14 (CD14), myeloid differentiation protein-2 (MD2), toll-like receptor-4 (TLR4) co-receptor, and a SEAP reporter gene (HEK293-TLR4). Cells were maintained in DMEM supplemented with 4.5 g/L glucose, 10% fetal bovine serum (FBS), 50 U/ml penicillin, 50 μg/ml streptomycin, 100 μg/ml Normocin™ and 2 mM L-glutamine. For all experiments a cell suspension was prepared using HEK-Blue™ Detection medium at 14×10^4 cells/ml. For stimulation experiments, cells were seeded at 2.52×10^4 cells/well in 96-well flat-bottom plates and treated with Fh12 (from 0.62 to 10 μg/ml) or LPS (5 μg/ml), and incubated at 37° C., 5% CO2 for 24 h. In the inhibition experiments, cells were cultured with Fh12 (0.6 to 10 μg/ml) 30 min prior LPS (5 μg/ml) stimulation. […] All readings were done at 655 nm after 24 h of LPS-stimulation. […] The percent of reduction (R %) of the absorbance values was calculated by the formula R (%)=100−[(A−C)×100)/(B−C)], where A is the mean A655 of three replicates obtained when cells were stimulated with Fh12, and B is the mean A665 value obtained when cells were exposed to LPS, and C is the mean A655 of three replicates obtained when cells were stimulated with PBS. […]

human LBP = molecular target: T1, human LBP (Homo sapiens, UniProt P18428); assay: LPS-binding protein (LBP)/LPS interaction assay (Endoblock LBP ELISA); settings: Polymyxin-B 100 μM
T1 construct: purchased Hycult Biotech
T1 sequence (P18428 26-481): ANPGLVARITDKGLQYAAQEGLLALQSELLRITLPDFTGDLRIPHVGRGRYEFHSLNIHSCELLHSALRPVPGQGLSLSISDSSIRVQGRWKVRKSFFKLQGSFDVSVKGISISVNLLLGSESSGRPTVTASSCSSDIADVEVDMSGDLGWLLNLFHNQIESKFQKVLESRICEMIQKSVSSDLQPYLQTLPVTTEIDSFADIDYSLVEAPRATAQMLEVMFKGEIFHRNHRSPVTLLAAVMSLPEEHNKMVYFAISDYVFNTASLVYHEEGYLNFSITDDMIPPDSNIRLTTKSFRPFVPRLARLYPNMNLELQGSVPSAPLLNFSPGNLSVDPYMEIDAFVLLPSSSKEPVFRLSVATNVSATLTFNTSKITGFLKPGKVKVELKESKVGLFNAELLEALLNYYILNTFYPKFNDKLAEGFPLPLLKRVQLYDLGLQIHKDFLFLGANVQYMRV
Description: The Endoblock LBP ELISA test kit (Hycult Biotech, PA, USA) was used according to the manufacturer's instructions to investigate whether Fh12 disrupts the interaction between LPS and LBP. Briefly, binding of biotinylated LPS to pre-captured human LBP was assessed using streptavidin peroxidase, followed by addition of tetramethylbenzidine. Fh12 (0.05-10 μg/ml) was pre-incubated for 30 min with biotinylated-LPS and added to wells pre-coated with anti-LBP+LBP. PMB (0.2-100 μM), which competes with LBP for binding to LPS, was used as a control for inhibition by pre-incubation with biotinylated-LPS.
To investigate the mechanism through which Fh12 specifically blocks the interaction between LPS and TLR4, we firstly assessed whether Fh12 exposure alters either the interaction of LPS with […] (LBP), or the expression of any TLR4 complex component. To assess whether Fh12 prevents binding of LPS to LBP, we used an LBP-ELISA kit, which detects binding of biotinylated LPS to LBP. PMB, which competes with LBP for binding to LPS, was used as a positive control. A lipid-binding protein assay (Endoblock) was used to investigate whether Fh12 disrupts the interaction between LPS and LBP. Polymyxin-B (100 μM), which is known to compete with LBP for binding to LPS, blocked LBP/LPS binding.

## polymyxin-B [PMB]
TLR4
  NF-κB expression, antagonist control: completely suppressed
Human LBP
  LBP/LPS binding, positive control: blocked
